# Measured values published in PubChem BioAssay AID1963970 (Molecular Pharmacology Branch, DTP, NCI, 2024).
# Test system: 931267-113-T-J1-PDC multicell spheroid viability
# Experiment: Anticancer human tumor 931267-113-T-J1-PDC patient-derived colon adenocarcinoma cell line growth inhibition [PI3K]
# Details: for IC50: curve of first compound; for viability, T/C: stronger effect = lower value
# Procedure, shortened: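 Targeted small molecules plus PI3K inhibitors, half-log dose series from Cmax (default top 10 microM), were applied to heterotypic spheroids of cancer cells with HUVEC and MSCs. Viability indicated growth inhibition.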
# [1] = second compound 0.0316 µM, first compound 0.000316 µM
# [2] = second compound 0.0316 µM, first compound 0.001 µM
# [3] = second compound 0.0316 µM, first compound 0.00316 µM
# [4] = second compound 0.0316 µM, first compound 0.01 µM
# [5] = second compound 0.0316 µM, first compound 0.0316 µM
# [6] = second compound 0.0316 µM, first compound 0.1 µM
# [7] = second compound 0.1 µM, first compound 0.000316 µM
# [8] = second compound 0.1 µM, first compound 0.001 µM
# [9] = second compound 0.1 µM, first compound 0.00316 µM
# [10] = second compound 0.1 µM, first compound 0.01 µM
# [11] = second compound 0.1 µM, first compound 0.0316 µM
# [12] = second compound 0.1 µM, first compound 0.1 µM
# [13] = second compound 0.316 µM, first compound 0.000316 µM
# [14] = second compound 0.316 µM, first compound 0.001 µM
# [15] = second compound 0.316 µM, first compound 0.00316 µM
# [16] = second compound 0.316 µM, first compound 0.01 µM
# [17] = second compound 0.316 µM, first compound 0.0316 µM
# [18] = second compound 0.316 µM, first compound 0.1 µM
# [19] = second compound 1 µM, first compound 0.000316 µM
# [20] = second compound 1 µM, first compound 0.001 µM
# [21] = second compound 1 µM, first compound 0.00316 µM
# [22] = second compound 1 µM, first compound 0.01 µM
# [23] = second compound 1 µM, first compound 0.0316 µM
# [24] = second compound 1 µM, first compound 0.1 µM
# [25] = second compound 3.16 µM, first compound 0.000316 µM
# [26] = second compound 3.16 µM, first compound 0.001 µM
# [27] = second compound 3.16 µM, first compound 0.00316 µM
# [28] = second compound 3.16 µM, first compound 0.01 µM
# [29] = second compound 3.16 µM, first compound 0.0316 µM
# [30] = second compound 3.16 µM, first compound 0.1 µM
# [31] = second compound 10 µM, first compound 0.000316 µM
# [32] = second compound 10 µM, first compound 0.001 µM
# [33] = second compound 10 µM, first compound 0.00316 µM
# [34] = second compound 10 µM, first compound 0.01 µM
# [35] = second compound 10 µM, first compound 0.0316 µM
# [36] = second compound 10 µM, first compound 0.1 µM
# [37] = second compound 0.00316 µM, first compound 0.0316 µM
# [38] = second compound 0.00316 µM, first compound 0.1 µM
# [39] = second compound 0.00316 µM, first compound 0.316 µM
# [40] = second compound 0.00316 µM, first compound 1 µM
# [41] = second compound 0.00316 µM, first compound 3.16 µM
# [42] = second compound 0.00316 µM, first compound 10 µM
# [43] = second compound 0.01 µM, first compound 0.0316 µM
# [44] = second compound 0.01 µM, first compound 0.1 µM
# [45] = second compound 0.01 µM, first compound 0.316 µM
# [46] = second compound 0.01 µM, first compound 1 µM
# [47] = second compound 0.01 µM, first compound 3.16 µM
# [48] = second compound 0.01 µM, first compound 10 µM
# [49] = second compound 0.0316 µM, first compound 0.316 µM
# [50] = second compound 0.0316 µM, first compound 1 µM
# [51] = second compound 0.0316 µM, first compound 3.16 µM
# [52] = second compound 0.0316 µM, first compound 10 µM
# [53] = second compound 0.1 µM, first compound 0.316 µM
# [54] = second compound 0.1 µM, first compound 1 µM
# [55] = second compound 0.1 µM, first compound 3.16 µM
# [56] = second compound 0.1 µM, first compound 10 µM
# [57] = second compound 0.316 µM, first compound 0.316 µM
# [58] = second compound 0.316 µM, first compound 1 µM
# [59] = second compound 0.316 µM, first compound 3.16 µM
# [60] = second compound 0.316 µM, first compound 10 µM
# [61] = second compound 1 µM, first compound 0.316 µM
# [62] = second compound 1 µM, first compound 1 µM
# [63] = second compound 1 µM, first compound 3.16 µM
# [64] = second compound 1 µM, first compound 10 µM
# 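Further: viability read 7 days after compound addition.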
structure (smiles),measurement,setting,value
CC(C)n1nc(-c2ccc3oc(N)nc3c2)c2c(N)ncnc21 + Cc1nc(NC(=O)N2CCCC2C(N)=O)sc1-c1ccnc(C(C)(C)C(F)(F)F)c1,IC50,second compound 0.0316 µM,91.5 nM
same,IC50,second compound 0.1 µM,77.7 nM
same,IC50,second compound 0.316 µM,69.7 nM
same,IC50,second compound 1 µM,56.9 nM
same,IC50,second compound 3.16 µM,24.9 nM
same,IC50,second compound 10 µM,8.31 nM
same,"viability, T/C",[1],97.2%
same,"viability, T/C",[2],84.3%
same,"viability, T/C",[3],81.5%
same,"viability, T/C",[4],101%
same,"viability, T/C",[5],78.3%
same,"viability, T/C",[6],47.6%
same,"viability, T/C",[7],97.3%
same,"viability, T/C",[8],91.1%
same,"viability, T/C",[9],89.9%
same,"viability, T/C",[10],92.6%
same,"viability, T/C",[11],79.7%
same,"viability, T/C",[12],41.5%
same,"viability, T/C",[13],88.8%
same,"viability, T/C",[14],91.9%
same,"viability, T/C",[15],86.8%
same,"viability, T/C",[16],85.5%
same,"viability, T/C",[17],68.4%
same,"viability, T/C",[18],41.5%
same,"viability, T/C",[19],78.9%
same,"viability, T/C",[20],72.3%
same,"viability, T/C",[21],72.7%
same,"viability, T/C",[22],66.8%
same,"viability, T/C",[23],64.1%
same,"viability, T/C",[24],38.3%
same,"viability, T/C",[25],68.8%
same,"viability, T/C",[26],67.8%
same,"viability, T/C",[27],62.1%
same,"viability, T/C",[28],58.4%
same,"viability, T/C",[29],48.4%
same,"viability, T/C",[30],30.7%
same,"viability, T/C",[31],62.3%
same,"viability, T/C",[32],52.3%
same,"viability, T/C",[33],55.6%
same,"viability, T/C",[34],45.7%
same,"viability, T/C",[35],44%
same,"viability, T/C",[36],24.1%
CC1(C)CCC(Nc2ncc(C(F)(F)F)c(-c3c[nH]c4c(P(C)(C)=O)c(C#N)ccc34)n2)CN1 (stereo not drawn) + CC(Nc1ccc2c(c1)OCCn1cc(N3C(=O)OCC3C(F)F)nc1-2)C(N)=O,IC50,second compound 0.00316 µM,> 10000 nM
same,IC50,second compound 0.01 µM,> 10000 nM
same,IC50,second compound 0.0316 µM,8540 nM
same,IC50,second compound 0.1 µM,> 10000 nM
same,IC50,second compound 0.316 µM,6390 nM
same,IC50,second compound 1 µM,4800 nM
same,"viability, T/C",[37],99.7%
same,"viability, T/C",[38],88.6%
same,"viability, T/C",[39],85.2%
same,"viability, T/C",[40],71.8%
same,"viability, T/C",[41],78.2%
same,"viability, T/C",[42],49.5%
same,"viability, T/C",[43],102%
same,"viability, T/C",[44],89.2%
same,"viability, T/C",[45],83.5%
same,"viability, T/C",[46],74.6%
same,"viability, T/C",[47],67.7%
same,"viability, T/C",[48],49.8%
same,"viability, T/C",[5],91.2%
same,"viability, T/C",[6],88.2%
same,"viability, T/C",[49],79.6%
same,"viability, T/C",[50],71.5%
same,"viability, T/C",[51],72.8%
same,"viability, T/C",[52],45%
same,"viability, T/C",[11],99.7%
same,"viability, T/C",[12],90.5%
same,"viability, T/C",[53],76.6%
same,"viability, T/C",[54],74%
same,"viability, T/C",[55],73.7%
same,"viability, T/C",[56],46.2%
same,"viability, T/C",[17],87%
same,"viability, T/C",[18],79%
same,"viability, T/C",[57],72.9%
same,"viability, T/C",[58],74.1%
same,"viability, T/C",[59],73.1%
same,"viability, T/C",[60],36%
same,"viability, T/C",[23],81.4%
same,"viability, T/C",[24],75.4%
same,"viability, T/C",[61],64.2%
same,"viability, T/C",[62],65.2%
same,"viability, T/C",[63],64.2%
same,"viability, T/C",[64],34.6%
CC1(C)CCC(CN2CCN(c3ccc(C(=O)NS(=O)(=O)c4ccc(NCC5CCOCC5)c([N+](=O)[O-])c4)c(Oc4cnc5[nH]ccc5c4)c3)CC2)=C(c2ccc(Cl)cc2)C1 + COc1c(OCCCN2CCOCC2)ccc2c3n(c(=NC(=O)c4cnc(N)nc4)nc12)CCN3,IC50,second compound 0.00316 µM,> 10000 nM
same,IC50,second compound 0.01 µM,> 10000 nM
same,IC50,second compound 0.0316 µM,> 10000 nM
same,IC50,second compound 0.1 µM,7490 nM
same,IC50,second compound 0.316 µM,2360 nM
same,IC50,second compound 1 µM,< 31.6 nM
same,"viability, T/C",[37],105%
same,"viability, T/C",[38],99.5%
same,"viability, T/C",[39],99%
same,"viability, T/C",[40],102%
same,"viability, T/C",[41],99.7%
same,"viability, T/C",[42],80.8%
same,"viability, T/C",[43],104%
same,"viability, T/C",[44],104%
same,"viability, T/C",[45],97.6%
same,"viability, T/C",[46],91.7%
same,"viability, T/C",[47],96.5%
same,"viability, T/C",[48],71.1%
same,"viability, T/C",[5],92.4%
same,"viability, T/C",[6],89.8%
same,"viability, T/C",[49],92.8%
same,"viability, T/C",[50],86.4%
same,"viability, T/C",[51],87.3%
same,"viability, T/C",[52],68.2%
same,"viability, T/C",[11],74.9%
same,"viability, T/C",[12],74.8%
same,"viability, T/C",[53],71.2%
same,"viability, T/C",[54],65.1%
same,"viability, T/C",[55],59.5%
same,"viability, T/C",[56],46.8%
same,"viability, T/C",[17],53.5%
same,"viability, T/C",[18],50.3%
same,"viability, T/C",[57],49.2%
same,"viability, T/C",[58],51.7%
same,"viability, T/C",[59],49.6%
same,"viability, T/C",[60],31.3%
same,"viability, T/C",[23],37.5%
same,"viability, T/C",[24],32.5%
same,"viability, T/C",[61],35.8%
same,"viability, T/C",[62],36.1%
same,"viability, T/C",[63],33.7%
same,"viability, T/C",[64],33.3%
CC(=O)c1c(C)c2cnc(Nc3ccc(N4CCNCC4)cn3)nc2n(C2CCCC2)c1=O + CC(Nc1ncnc2nc[nH]c12)c1cc2cccc(Cl)c2c(=O)n1-c1ccccc1,IC50,second compound 0.0316 µM,> 100 nM
same,IC50,second compound 0.1 µM,> 100 nM
same,IC50,second compound 0.316 µM,> 100 nM
same,IC50,second compound 1 µM,> 100 nM
same,IC50,second compound 3.16 µM,> 100 nM
same,IC50,second compound 10 µM,> 100 nM
same,"viability, T/C",[1],115%
same,"viability, T/C",[2],99%
same,"viability, T/C",[3],96.5%
same,"viability, T/C",[4],101%
same,"viability, T/C",[5],120%
same,"viability, T/C",[6],114%
same,"viability, T/C",[7],106%
same,"viability, T/C",[8],104%
same,"viability, T/C",[9],110%
same,"viability, T/C",[10],99.5%
same,"viability, T/C",[11],110%
same,"viability, T/C",[12],103%
same,"viability, T/C",[13],109%
same,"viability, T/C",[14],105%
same,"viability, T/C",[15],98.1%
same,"viability, T/C",[16],111%
same,"viability, T/C",[17],108%
same,"viability, T/C",[18],94.6%
same,"viability, T/C",[19],104%
same,"viability, T/C",[20],105%
same,"viability, T/C",[21],104%
same,"viability, T/C",[22],114%
same,"viability, T/C",[23],99%
same,"viability, T/C",[24],102%
same,"viability, T/C",[25],106%
same,"viability, T/C",[26],95.7%
same,"viability, T/C",[27],90.7%
same,"viability, T/C",[28],98%
same,"viability, T/C",[29],103%
same,"viability, T/C",[30],96.1%
same,"viability, T/C",[31],97.3%
same,"viability, T/C",[32],94.9%
same,"viability, T/C",[33],98%
same,"viability, T/C",[34],93.3%
same,"viability, T/C",[35],94.7%
same,"viability, T/C",[36],84.3%
